# Test results taken from US6458846B1, “Ion channel modulating agents” (Neurosearch A/S, priority 1998, dated 2002).
# Where a name gives a salt, the structure may show the parent alone.
row,melting point [°C],Compound
1,64 to 69,"ON=Cc1ccc(Cl)c(Cl)c1OCc1ccccc1 (as salt: HCl) [Compound 1e, O-Benzyl 2-formyl-5,6-dichlorophenol oxime]"
2,82 to 83,"COc1c(C=NO)ccc(Cl)c1Cl (as salt: HCl) [Compound 1f, O-Methyl 2-formyl-5,6-dichlorophenol oxime]"
3,99 to 100,"CC(=O)c1ccccc1NC(C)=NO [Compound 1i, N-(2-acetylphenyl)acetamide oxime]"
